We go through 53 compounds from ChEMBL document CHEMBL1156829 (Proc Natl Acad Sci U S A, 2008).

A short description of series [1]: NOVARTIS: Cytotoxicity against human hepatocellular carcinoma cell line (Huh7). Type of series: toxicity, cell-based, Huh-7. The settings on record: Huh7 cells (hepatocellular carcinoma cell line).
Series [2] deals with Plasmodium falciparum. Description: NOVARTIS: Inhibition of Plasmodium falciparum W2 (drug-resistant) proliferation in erythrocyte-based infection assay. Type of series: functional, organism-based. The note with it: Plasmodium falciparum, W2; read-out: EC50.
In series [3] the test system is Plasmodium falciparum. Description: NOVARTIS: Inhibition of Plasmodium falciparum 3D7 (drug-susceptible) proliferation in erythrocyte-based infection assay. Type of series: functional, organism-based. The settings on record: Plasmodium falciparum, 3D7.

Usually CC50 stands for the concentration at which the toxic effect on the cells reaches its halfway point. As usually defined, the EC50 is the concentration needed to bring the measured effect to its halfway point.

For the compound `COc1ccc(/C=C2/SC(=Nc3ccccc3)NC2=O)cc1`, the CC50 in series [1] is more than 100000 nM. Also, the EC50 in the series with Plasmodium falciparum [2] is 332 nM; in the series with Plasmodium falciparum [3], 292 nM.
On the same counts, the results for `O=C(NCc1ccco1)C1CCN(S(=O)(=O)c2ccc(Cl)cc2)CC1` are more than 100000 nM, 355 nM and 514 nM.
On the same counts, the results for `CCOC(=O)c1c(CSc2ccccc2)oc2cc(CN(C)C)c(O)c(Cl)c12` are 61600 nM, 210 nM and 321 nM.
As for `O=C(c1cccc(Cl)c1)N1CCN(c2ccc([N+](=O)[O-])c(NC3CC3)c2)CC1`, the CC50 in series [1] is more than 100000 nM. The results for the EC50 in the series on Plasmodium falciparum [2] and in the series on Plasmodium falciparum [3] were 340 nM and 552 nM, respectively.
On the same counts, the results for `CCCc1c(C(=O)OCC)c2cc(O)ccc2n1-c1ccc(OC)cc1` are more than 100000 nM, 339 nM and 133 nM.
As to `O=C(Cc1ccccc1)NC(c1ccc(Cl)cc1)c1ccc2cccnc2c1O` (centres undefined), in series [1], the CC50 is more than 100000 nM. For the same compound, the values for the EC50 with Plasmodium falciparum [2] and in the series on Plasmodium falciparum [3] were 337 nM and 209 nM, respectively.
On the same counts, the results for `COc1ccc(C2C(C(=O)Nc3cc(Cl)c(OC)cc3OC)c3ccccc3C(=O)N2C)cc1` (centres undefined) are more than 100000 nM, 333 nM and 378 nM.
On the same counts, the results for `Nc1ccc(-c2nc3cc(Cc4ccc5[nH]c(-c6ccc(N)cc6)nc5c4)ccc3[nH]2)cc1` are 17900 nM, 63.4 nM and 243 nM.
On the same counts, the results for `CCc1c(C)c(C#N)c2nc3ccccc3n2c1NCc1ccco1` are more than 100000 nM, 333 nM and 271 nM.
On to `CCC(=O)N(C)CCCNc1ccnc2cc(Cl)ccc12`, for which the CC50 in series [1] was more than 100000 nM. Moreover, the results for the EC50 in the series on Plasmodium falciparum [2] and with Plasmodium falciparum [3] were 341 nM and 467 nM, respectively.
On to `Cc1nc(NN=Cc2c(O)ccc3ccccc23)cc(N2CCCCC2)n1`, for which the CC50 in series [1] is more than 100000 nM. The EC50 in the series with Plasmodium falciparum [2] turned out to be 339 nM; in the series on Plasmodium falciparum [3], 609 nM.
The compound `Cc1ccc(OCC(=O)Nc2cccc(C(=O)O)c2)c(Br)c1` displayed a CC50 in series [1] of more than 10000 nM. The results for the EC50 in the series on Plasmodium falciparum [2] and in the series on Plasmodium falciparum [3] were more than 34.9 nM and more than 1250 nM, respectively.
Turning to `COc1ccccc1-n1nnnc1SCC(=O)Nc1cc([N+](=O)[O-])ccc1C`, in series [1], the CC50 is more than 100000 nM. The EC50 stood at 349 nM in the series on Plasmodium falciparum [2] and 651 nM with Plasmodium falciparum [3].
On the same counts, the results for `O=C(Nc1ccc(Cl)cc1)c1c2c(nc3ccccc13)-c1ccccc1CC2` are more than 100000 nM, 338 nM and 410 nM.
For `CCCCN(C(=O)Nc1c(C(C)C)cccc1C(C)C)C(CC)c1nc2ccccc2c(=O)n1-c1cccc(Cl)c1` (centres undefined), the cytotoxic concentration (CC50) in series [1] is more than 6290 nM. The values for the EC50 with Plasmodium falciparum [2] and with Plasmodium falciparum [3] were less than 21.2 nM and more than 1250 nM, respectively.
Consider `COc1ccc(C2CC(=O)C3=C(C2)NC(C)=C(C(=O)OC2CCCCC2)C3c2ccc(F)cc2)cc1OC` (centres undefined), for which the CC50 in series [1] stood at 15200 nM. For the same compound, the concentration for a half-maximal effect (EC50) in the series on Plasmodium falciparum [2] is 53 nM; with Plasmodium falciparum [3], 138 nM.
In series [1], `O=C1C(NC2CCCC2)=C(N2CCCCC2)C(=O)c2ccccc21` registered a CC50 of 10100 nM. Also, the EC50 was found to be 34.2 nM in the series with Plasmodium falciparum [2] and 22.4 nM in the series with Plasmodium falciparum [3].
In the case of `COc1cc(OC)c(Br)c(-n2c(C(C)N(CCC(C)C)C(=O)c3ccccc3C)nc3ccccc3c2=O)c1` (centres undefined), the CC50 in series [1] was more than 10000 nM. Besides, the EC50 is less than 33.7 nM in the series on Plasmodium falciparum [2] and more than 1250 nM with Plasmodium falciparum [3].
In series [1], `COc1cc(CNc2ccc(N3CCCCC3)cc2)ccc1OCc1ccccc1F` showed a CC50 of more than 100000 nM. For the same compound, the EC50 amounted to 335 nM in the series with Plasmodium falciparum [2] and 475 nM with Plasmodium falciparum [3].
In the case of `COc1ccc(C2C(C(=O)Nc3cccc(OC)c3)c3ccccc3C(=O)N2C2CCCCC2)cc1` (centres undefined), in series [1], the CC50 was more than 100000 nM. Also, the EC50 in the series with Plasmodium falciparum [2] was determined as 332 nM; with Plasmodium falciparum [3], 1110 nM.
On the same counts, the results for `COc1cccc(C(=O)Oc2ccccc2-c2nc3ccccn3c2NC(C)(C)CC(C)(C)C)c1` are more than 10000 nM, 33 nM and 270 nM.
On the same counts, the results for `N#Cc1ccc(N2CCCN(C(=S)NC3CCCC3)CC2)nc1` are more than 100000 nM, 330 nM and 650 nM.
On the same counts, the results for `CN(C)CCNCc1cc(-c2ccnc3cc(Cl)ccc23)ccc1O` are 45600 nM, 152 nM and 120 nM.
`COC(=O)C1=C(C)NC2=C(C(=O)CC(c3ccccc3)C2)C1c1ccc(Cl)cc1` (centres undefined) yielded a CC50 in series [1] of more than 100000 nM. Besides, the EC50 in the series with Plasmodium falciparum [2] turned out to be 333 nM; in the series on Plasmodium falciparum [3], 1220 nM.
In the case of `Cc1onc(-c2ccccc2Cl)c1C(=O)Nc1cc(Cl)ccc1Cl`, the CC50 in series [1] was more than 100000 nM. In addition, the EC50 in the series with Plasmodium falciparum [2] was found to be 330 nM; in the series on Plasmodium falciparum [3], 369 nM.
On the same counts, the results for `Cc1ccc(NC(=O)c2ccc(NCCCN3CCC(C)CC3)c([N+](=O)[O-])c2)cc1F` are more than 100000 nM, 330 nM and 191 nM.
`CCOc1ccc(-c2cc(C)[n+](CCO)c(-c3ccc(OCC)cc3)c2)cc1` gave a CC50 in series [1] of more than 100000 nM. Further, the EC50 was 352 nM with Plasmodium falciparum [2] and 1080 nM in the series with Plasmodium falciparum [3].
Compound `COc1ccc(C=NNc2nc3ccccc3[nH]2)cc1OC` had a half-maximal cytotoxic concentration (CC50) in series [1] of 36500 nM. Besides, the EC50 stood at 128 nM in the series with Plasmodium falciparum [2] and 243 nM in the series with Plasmodium falciparum [3].
On the same counts, the results for `CCC(C(=O)Oc1ccccc1-c1nc2cc(C)ccn2c1NC(C)(C)CC(C)(C)C)c1ccccc1` (centres undefined) are more than 10000 nM, 34.7 nM and 894 nM.
With `CCOC(=O)c1c(C)n(Cc2ccccc2)c2c1cc(O)c1c2c(-c2ccccc2)nn1-c1ccccc1`, the CC50 in series [1] is more than 100000 nM. Also, the EC50 in the series with Plasmodium falciparum [2] came out at 345 nM; with Plasmodium falciparum [3], 1060 nM.
On the same counts, the results for `CCCOC(=O)C1=C(C)NC2=C(C(=O)CC(c3ccc(OC)c(OC)c3)C2)C1c1cccc(Br)c1` (centres undefined) are 21600 nM, 74.4 nM and 322 nM.
On the same counts, the results for `CCOC(=O)CN(C)Cc1ccc2c(NC(=O)c3ccc(C)s3)c(C(=O)OC)sc2n1` are more than 100000 nM, 354 nM and 766 nM.
`O=C(Nc1ccc(-n2cccn2)cc1)C1CCN(CC=Cc2ccccc2)CC1`: the CC50 in series [1] was more than 99800 nM. For the same compound, the EC50 in the series on Plasmodium falciparum [2] came to 344 nM; in the series on Plasmodium falciparum [3], 887 nM.
The compound `O=[N+]([O-])c1cccc(-c2ccc(C=NNc3nc4ccccc4[nH]3)o2)c1` displayed a CC50 in series [1] of more than 100000 nM. In addition, the results for the EC50 with Plasmodium falciparum [2] and in the series with Plasmodium falciparum [3] were 344 nM and 379 nM, respectively.
On the same counts, the results for `O=C(CC1OC(=O)c2ccccc21)c1ccc(Cl)cc1` (centres undefined) are more than 100000 nM, 342 nM and 717 nM.
On the same counts, the results for `CCOC(=O)c1cn(CC)c2cc(N3CCCCC3)c(F)cc2c1=O` are more than 100000 nM, 336 nM and 166 nM.
On the same counts, the results for `Cc1cc(NC(=O)C=Cc2ccccc2Cl)ccc1Br` are more than 100000 nM, 344 nM and 1270 nM.
On to `Cc1ccn2c(NC(C)(C)CC(C)(C)C)c(-c3ccccc3OC(=O)c3ccco3)nc2c1`, for which, in series [1], the CC50 was more than 10000 nM. The EC50 was found to be 34.1 nM in the series on Plasmodium falciparum [2] and 828 nM in the series on Plasmodium falciparum [3].
In series [1], `CC(C)(C)CC(C)(C)Nc1c(-c2ccccc2OC(=O)/C=C/c2ccccc2)nc2ccccn12` had a CC50 of more than 10000 nM. The results for the EC50 in the series on Plasmodium falciparum [2] and with Plasmodium falciparum [3] were 34 nM and 457 nM, respectively.
On the same counts, the results for `COc1ccccc1C1CC(=O)N2CN(Cc3ccccc3)CSC2=C1C#N` (centres undefined) are more than 100000 nM, 337 nM and 599 nM.
In series [1], `CCOC(=O)c1[nH]c(C)c(Cc2ccc(OCC)cc2)c1C` showed a CC50 of more than 100000 nM. Further, the EC50 in the series with Plasmodium falciparum [2] was found to be 347 nM; with Plasmodium falciparum [3] it was 279 nM.
Take `O=C1C2C(C(=O)N1c1ccccc1F)C1(c3ccccc3)C(=O)C2(c2ccccc2)C(c2ccccc2)=C1c1ccccc1` (centres undefined): in series [1], the CC50 was more than 100000 nM. The EC50 turned out to be 344 nM in the series on Plasmodium falciparum [2] and 811 nM in the series with Plasmodium falciparum [3].
On the same counts, the results for `COc1ccc(C2=CC(=Cc3cccc(OC)c3OC)C(=O)O2)cc1OC` are more than 100000 nM, 332 nM and 4760 nM.
On the same counts, the results for `Cc1ccc(NC(=O)C2CSC(c3cccc(F)c3)N2C(=O)c2ccc(C(C)(C)C)cc2)cc1` (centres undefined) are more than 100000 nM, 349 nM and 449 nM.
For `COc1ccc(C2=C(c3ccc(OC)cc3)C3(c4ccccc4)C(=O)C2(c2ccccc2)C2C(=O)N(c4cc(Cl)ccc4C)C(=O)C23)cc1` (centres undefined), the CC50 in series [1] was more than 100000 nM. In addition, the EC50 came to 346 nM in the series on Plasmodium falciparum [2] and 447 nM in the series with Plasmodium falciparum [3].
On the same counts, the results for `CCC(C)NC(=O)c1nn(-c2ccc(OC)cc2)c(=O)c2ccccc12` (centres undefined) are more than 100000 nM, 353 nM and 798 nM.
For the compound `CC(=O)N(C1=C(N2CCC(C)CC2)C(=O)c2ccccc2C1=O)c1cccc(F)c1`, in series [1], the CC50 came to 66400 nM. The EC50 was 233 nM in the series with Plasmodium falciparum [2] and 241 nM in the series on Plasmodium falciparum [3].
On the same counts, the results for `CCOC(=O)C1=C(C)N=c2sc(=Cc3ccccc3OC(C)=O)c(=O)n2C1c1ccc(OC)cc1` (centres undefined) are more than 100000 nM, 339 nM and 515 nM.
On the same counts, the results for `CCOC(=O)C(Cc1ccc(O)cc1)NC1=CC(=O)C(=O)c2ccccc21` (centres undefined) are more than 100000 nM, 333 nM and 305 nM.
For `CCC(C(=O)Oc1ccccc1-c1nc2ccccn2c1NC(C)(C)CC(C)(C)C)c1ccccc1` (centres undefined), the CC50 in series [1] was more than 10000 nM. For the same compound, the EC50 in the series on Plasmodium falciparum [2] was 32.9 nM; in the series with Plasmodium falciparum [3], 685 nM.
On the same counts, the results for `CCCN(CCC)C1=CC(=O)C(C(C)(C)C)=CC1=O` are 50900 nM, 171 nM and 216 nM.
On the same counts, the results for `O=C1CN=C(c2ccccc2)c2cc(Cl)ccc2N1Cc1cc(=O)n2ccccc2n1` are more than 100000 nM, 344 nM and 3550 nM.
On the same counts, the results for `CCC(Oc1ccc(C(C)(C)CC)cc1C(C)(C)CC)C(=O)Nc1ccc([N+](=O)[O-])cc1O` (centres undefined) are more than 100000 nM, 348 nM and more than 5260 nM.
